# What was measured:
# A549 = assay: Cytotoxicity against human A549 cells by MTT assay; format: functional; conditions: read-out: ED50 (the source's name)
# MCF7 = assay: Cytotoxicity against human MCF7 cells by MTT assay; format: functional; conditions: read-out: ED50 (the source's name)
# HT-29 = assay: Cytotoxicity against human HT-29 cells by MTT assay; format: functional; conditions: read-out: ED50 (the source's name)
# A498 = assay: Cytotoxicity against human A-498 cells by MTT assay; format: functional; conditions: read-out: ED50 (the source's name)
# PC-3 = assay: Cytotoxicity against human PC-3 cells by MTT assay; format: functional; conditions: read-out: ED50 (the source's name)
# MIA PaCa-2 = assay: Cytotoxicity against human PaCa2 cells by MTT assay; format: functional; conditions: read-out: ED50 (the source's name)
# [1] = Toxicity in brine shrimp; format: organism-based; conditions: artemia, in vivo
# Aedes aegypti = assay: Pesticidal activity against yellow fever mosquito larvae by microtiter plate assay; format: functional
Structure (SMILES),EC50 (A549),EC50 (MCF7),EC50 (HT-29),EC50 (A498),EC50 (PC-3),EC50 (MIA PaCa-2),LC50 [1],LC50 (Aedes aegypti)
COc1cccc2c1C(=O)c1c(O)c3c(c(O)c1C2=O)C[C@@](O)(C(=O)CO)C[C@@H]3O[C@H]1C[C@H](N)[C@H](O)[C@H](C)O1 [DOXORUBICIN],0.017 µg/mL,0.21 µg/mL,0.031 µg/mL,0.019 µg/mL,0.062 µg/mL,0.023 µg/mL,,
CCCCCCCCCCCCC(=O)C[C@@H]1C[C@@H](O)[C@@H](CC[C@H](O)[C@@H]2CC[C@@H](CCCCCC(O)CC3=CC(C)OC3=O)O2)O1 (stereo not given in full) [GONIOTRICIN],0.033 µg/mL,0.0033 µg/mL,0.0012 µg/mL,0.0011 µg/mL,0.26 µg/mL,1.4 µg/mL,2.7 µg/mL,3.6 µg/mL
C=C(C)[C@H]1Cc2c(ccc3c2O[C@@H]2COc4cc(OC)c(OC)cc4[C@@H]2C3=O)O1 [ROTENONE],,,,,,,,0.3 µg/mL

# Reference: ChEMBL document CHEMBL1157981, “Goniotriocin and (2,4-cis- and -trans)-xylomaticinones, bioactive annonaceous acetogenins from Goniothalamus giganteus” (J Nat Prod, 1999)
